The values below come from PMC9964602, “Myxinidin-Derived Peptide against Biofilms Caused by Cystic Fibrosis Emerging Pathogens” (International Journal of Molecular Sciences, 2023).

Read-outs that look alike come from different tables or passages of the source. Where a SMILES comes first, the peptide text is derived from it. [ ]: non-standard residue; d: D form. Dap = NC[C@H](N)C(=O)O; Aib = CC(C)(N)C(=O)O Some results are limits rather than exact numbers.

In series [1] the test system is A. xylosoxidans DSM 2402. As to the kind of experiment: microbe, parasite or virus in culture. The series is classed as cell-based, Achromobacter xylosoxidans. As for the experimental part: (§1) Candida albicans ATCC 90028, Achromobacter xylosoxidans DSM 2402, and Stenotrophomonas maltophilia DSM 50170 were used in this study. Microbial strains were grown in Tryptone Soya Broth (TSB, VWR chemicals, Leuven, Belgium), supplemented with 0.1% glucose only for C. albicans at 37 °C overnight. Then, cells were harvested by centrifugation at 5000 rpm, 4 °C for 10 min, followed by washing in Phosphate Buffered Saline (PBS, Oxoid Ltd., Basingstoke, UK) three times. Standardized 1 × 10^6 CFU mL^-^1 inoculum was used in the next experiments. The minimum inhibitory concentrations (MIC) of WMR-4 against C. albicans, A. xylosoxidans, and S. maltophilia were determined using a broth microdilution method accord-ing to CLSI M27-A3 and […]-A9 guidelines. Concentrations of WMR-4 from 0.5 to 50 μM were added to wells of a 96-well microplate containing 1 × 10^6 CFU mL^-1 cells. Fluconazole at a concentration range from 1 to 50 μM and meropenem at a concentration range from 10 to 200 μM were used as control. The plate was incubated at 37 °C for 24/48 h due to poor growth after 24 h for the two bacterial species. Next, the absorbance at 590 nm was read using a microplate reader (Synergy H4; BioTek Instruments, Agilent Technologies, Winooski, VT, USA). MIC value was defined as a lowest concentration of WMR and analogues able to inhibit total microbial growth.

Series [2] concerns S. maltophilia DSM 50170. As to the kind of experiment: microbe, parasite or virus in culture. In kind it is cell-based, Stenotrophomonas maltophilia. The protocol: as §1
The nature of series [3]: in vitro. As to conditions: serum. The series is classed as in vitro ADME, bovine. As for the experimental part:
The proteolytic stability of WMR and WMR-4 were determined in bovine serum acquired from ThermoFisher Scientific (Milan, Italy). Peptides were dissolved in sterile water to prepare stock solutions, then incubated with 50% of bovine serum to obtain a final concentration of 200 μM [69]. The mixture peptide/serum was incubated at 37 ± 1 °C for different times (0.25, 0.50, 1, 2, 3, 4, 5, and 16 h). At each pre-established time, an aliquot of reaction was taken, and acetonitrile was added to favor the precipitation of serum proteins. Then, the solution was cooled at 4 °C and centrifuged for 15 min at 13,000× g rpm. The supernatant was analyzed by HPLC in a Phenomenex Jupiter 4 μm Proteo 90 Å 250 × 21.20 mm column with a linear gradient of solvent B (0.1% TFA in acetonitrile) in solvent A (0.1% TFA in water) from 5 to 70% in 20 min with UV detection at 210 nm and a flow rate of 1 mL/min.

The subject of series [4] is C. albicans ATCC 90028. The series is classed as cell-based, Candida albicans. As to conditions: ATCC 90028, 48 h. The protocol: as §1

Consider `CC[C@H](C)[C@H](NC(=O)CNC(=O)[C@@H](N)Cc1c[nH]c2ccccc12)C(=O)N[C@@H](CCCNC(=N)N)C(=O)N[C@@H](CCCNC(=N)N)C(=O)N[C@H](C(=O)N[C@@H](CC(C)C)C(=O)N[C@@H](CCCCN)C(=O)N[C@@H](Cc1ccc(O)cc1)C(=O)NCC(=O)N[C@@H](CCCCN)C(=O)N[C@@H](CCCNC(=N)N)C(=O)N[C@H](CO)C(=O)N[C@@H](CCCCN)C(N)=O)[C@@H](C)CC` [WMR-2] (H-WGIRRILKYGKR[dS]K-NH2), for which the MIC in series [1] (DSM 2402, 48 h) is greater than 50 µM; in series [2] (DSM 50170, 48 h), greater than 50 µM.

For `C[C@@H](O)[C@H]1C(=O)N2C(C(=O)O)=C(S[C@@H]3CN[C@H](C(=O)N(C)C)C3)[C@H](C)[C@H]12` [MEM, meropenem, reference compound], the MIC came out at 65 µg/mL in series [1] (Achromobacter xylosoxidans, DSM2402, A. xylosoxidans DSM 2402, control drug, value outside parentheses, read-out: MIC) and 130 µg/mL in series [2] (Stenotrophomonas maltophilia, DSM50170, S. maltophilia DSM 50170, control drug, value outside parentheses, read-out: MIC).

`CC[C@H](C)[C@H](NC(=O)CNC(=O)[C@@H](N)Cc1c[nH]c2ccccc12)C(=O)N[C@@H](CCCNC(=N)N)C(=O)N[C@@H](CCCNC(=N)N)C(=O)N[C@H](C(=O)N[C@@H](CC(C)C)C(=O)N[C@@H](CCCCN)C(=O)N[C@@H](Cc1ccc(O)cc1)C(=O)NCC(=O)N[C@@H](CCCCN)C(=O)N[C@@H](CCCNC(=N)N)C(=O)N[C@@H](CO)C(=O)N[C@@H](CCCCN)C(N)=O)[C@@H](C)CC` [WMR] (H-WGIRRILKYGKRSK-NH2): in series [3], the share remaining (commonly what is left of the initial amount, in per cent) at 0.25 h, 200 μM turned out to be 75%; the amount remaining at 0.5 h, 200 μM amounted to 75%; the fraction remaining at 1 h, 200 μM came to 68%; the amount remaining at 2 h, 200 μM is 53%. For the same molecule, in series [3], the amount remaining at 3 h, 200 μM was determined as 36% and the fraction remaining at 5 h, 200 μM turned out to be 20%. Besides, in series [1] (DSM 2402, 48 h), the MIC was 50 µM. For the same molecule, the MIC in series [2] (DSM 50170, 48 h) was 50 µM.

For the molecule `CC[C@H](C)[C@H](NC(=O)[C@H](CCCNC(=N)N)NC(=O)[C@H](CCCNC(=N)N)NC(=O)[C@@H](NC(=O)C(C)(C)NC(=O)[C@@H](N)Cc1c[nH]c2ccccc12)[C@@H](C)CC)C(=O)N[C@@H](CC(C)C)C(=O)N[C@@H](CCCCN)C(=O)N[C@@H](Cc1ccc(O)cc1)C(=O)NCC(=O)N[C@@H](CCCCN)C(=O)N[C@@H](CCCNC(=N)N)C(=O)N[C@@H](CO)C(=O)N[C@@H](CCCCN)C(N)=O` [WMR-3] (H-W[Aib]IRRILKYGKRSK-NH2), the MIC is greater than 50 µM in series [1] (DSM 2402, 48 h) and greater than 50 µM in series [2] (DSM 50170, 48 h).

For `CC[C@H](C)[C@H](NC(=O)[C@H](CCCNC(=N)N)NC(=O)[C@H](CCCNC(=N)N)NC(=O)[C@@H](NC(=O)C(C)(C)NC(=O)[C@@H](N)Cc1c[nH]c2ccccc12)[C@@H](C)CC)C(=O)N[C@@H](CC(C)C)C(=O)N[C@@H](CCCCN)C(=O)N[C@@H](Cc1ccc(O)cc1)C(=O)NCC(=O)N[C@@H](CCCCN)C(=O)N[C@@H](CCCNC(=N)N)C(=O)N[C@H](CO)C(=O)N[C@H](CCCCN)C(N)=O` [WMR-4] (H-W[Aib]IRRILKYGKR[dS][dK]-NH2), the MIC in series [4] worked out at 50 µM; in series [1] (DSM 2402, 48 h), 25 µM; in series [2] (DSM 50170, 48 h), 25 µM. The same molecule returned a fraction remaining at 5 h, 200 μM in series [3] of 70%. Also, in series [3], the fraction remaining at 16 h, 200 μM was roughly 30%.

On to `CC[C@H](C)[C@H](NC(=O)CNC(=O)[C@@H](N)Cc1c[nH]c2ccccc12)C(=O)N[C@@H](CCCNC(=N)N)C(=O)N[C@@H](CCCNC(=N)N)C(=O)N[C@H](C(=O)N[C@@H](CC(C)C)C(=O)N[C@@H](CCCCN)C(=O)N[C@@H](Cc1ccc(O)cc1)C(=O)NCC(=O)N[C@@H](CCCCN)C(=O)N[C@@H](CCCNC(=N)N)C(=O)N[C@@H](CO)C(=O)N[C@@H](CN)C(N)=O)[C@@H](C)CC` [WMR-5] (H-WGIRRILKYGKRS[Dap]-NH2), for which the MIC in series [1] (DSM 2402, 48 h) was determined as 25 µM; in series [2] (DSM 50170, 48 h), 25 µM.

Consider `CC[C@H](C)[C@H](NC(=O)CNC(=O)[C@@H](N)Cc1c[nH]c2ccccc12)C(=O)N[C@@H](CCCNC(=N)N)C(=O)N[C@@H](CCCNC(=N)N)C(=O)N[C@H](C(=O)N[C@@H](CC(C)C)C(=O)N[C@@H](CCCCN)C(=O)N[C@@H](Cc1ccc(O)cc1)C(=O)NCC(=O)N[C@@H](CCCCN)C(=O)N[C@@H](CCCNC(=N)N)C(=O)N[C@@H](CO)C(=O)N[C@H](CCCCN)C(N)=O)[C@@H](C)CC` [WMR-1] (H-WGIRRILKYGKRS[dK]-NH2), for which the MIC in series [1] (DSM 2402, 48 h) is greater than 50 µM; in series [2] (DSM 50170, 48 h), greater than 50 µM.
